In PubChem BioAssay AID624285 (Broad Institute, 2012) one finds AC50 data, which are given here for 54 compounds.

Calls of active or inactive are those of the source.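 How the source made its calls: active means signal-decreasing dose-response curve whose fitted half-maximal concentration is at or below twice the highest valid tested dose; inconclusive means flat fit at 30 to 70% signal loss, or poor fit; inactive means the rest.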

The assay deals with NIH3T3/HeLa viability, CellTiter-Glo ATP luminescence, 24 h. In words: cytotoxicity in mammalian cells, dose response, cytotoxicity control for PDI inhibitor project, cell-based, 24 h, luminescence, cherry-picked samples (AID 624285).
Usually AC50 stands for the concentration at which the activity in the assay is half-maximal. With `Cc1nnc(SCc2cc(=O)oc3cc(O)ccc23)n1Cc1ccccc1`, the AC50 was > 70 µM (inactive). For `CC(C)Sc1nnc([C@H](Cc2c[nH]c3ccccc23)NC(=O)OC(C)(C)C)o1` the value was > 70 µM (inactive); for `Cc1cc(O)cc2c1C1CCC3(C)C(=O)CCC3C1C=C2` (centres undefined), > 70 µM (inactive).

As for `CCOC(=O)c1c(CN2CCOCC2)n(-c2ccccc2)c2cc(Br)c(O)cc12`, the AC50 was > 70 µM (inactive). For `NNC(=O)c1cc(-c2ccc(O)cc2)nc2ccc(Br)cc12` the value was > 70 µM (inactive). For `CCCCC(=O)OC1CCC2C3CCc4cc(O)ccc4C3CCC12C` (centres undefined) the value was 27.3 µM; for `Cc1sc(NC(=O)CCl)c(C(=O)c2ccccc2)c1C`, 15.4 µM.

Consider `O=S(=O)(Nc1ccc(C(O)(C(F)(F)F)C(F)(F)F)cc1)c1ccc(Cl)c2nonc12`, for which the AC50 is 9.47 µM. For `O=C(/C=C/c1ccc(N2CCCCC2)c([N+](=O)[O-])c1)c1ccc(O)cc1` the value was 12 µM. Take `Cn1cnnc1Sc1ccc(/C=C/C(=O)c2ccc(O)cc2)cc1[N+](=O)[O-]`: the AC50 is 12.3 µM.

Consider `O=C(CCc1nc(-c2ccccc2F)no1)Nc1ccc(Oc2ccccc2)cc1`, for which the AC50 is > 70 µM (inactive). For `CCOc1cc(/C=C/C(=O)c2ccc(O)cc2)ccc1OCC(=O)N(C)C` the value was 39.4 µM. For `CCN1C[C@]2(COC(=O)c3ccccc3N)CC[C@H](OC)C34[C@@H]5C[C@H]6[C@H](OC)[C@@H]5[C@](O)(C[C@@H]6OC)[C@@](O)([C@H]13)[C@@H](OC)[C@@H]42` the value was > 70 µM (inactive); for `COc1ccc(Oc2ccc(/C=C/C(=O)c3ccc(O)cc3)cc2[N+](=O)[O-])cc1`, 12.4 µM.

On to `C[C@]12CC[C@@H]3c4ccc(O)cc4C(=O)C[C@H]3[C@@H]1CC[C@@H]2O`, for which the AC50 is > 70 µM (inactive). For `CCOc1ccc(CCN2C(=O)C(=O)N([C@@H](CC(C)C)CN3CCC[C@@H]3CN3C(=O)C(=O)NC[C@@H]3Cc3ccccc3)C[C@@H]2Cc2ccc(O)cc2)cc1` the value was 38.1 µM. For `C[C@H]1CN([C@@H](C)CO)C(=O)Cc2cc(NC(=O)Nc3ccccc3)ccc2O[C@H]1CN(C)Cc1ccccc1` the value was > 70 µM (inactive); for `Cc1noc(C)c1-c1ccc(C(=O)NCc2ccc(Cl)cc2)c2occc12`, > 70 µM (inactive); for `CN(C)CCCN(C(=O)c1ccc(S(=O)(=O)N2CCCc3ccccc32)cc1)c1nc2ccc(F)cc2s1`, 18.2 µM. For `CCSc1nnc([C@H](Cc2c[nH]c3ccccc23)NC(=O)OC(C)(C)C)o1` the value was > 70 µM (inactive); for `CC(=O)c1cc(-c2ccccc2)n(CC(=O)Nc2cccc(C)c2)c1C`, > 70 µM (inactive); for `CS(=O)(=O)c1ccc(C(=O)OCC(=O)N2CCN(CCC3CCCCC3)CC2)cc1[N+](=O)[O-]`, 3.32 µM. As to `C[C@H]1CN([C@@H](C)CO)C(=O)Cc2cc(NC(=O)Nc3ccccc3)ccc2O[C@@H]1CN(C)Cc1ccccc1`, the AC50 was 37.9 µM. For `CCOC(=O)C1(CCOc2ccccc2)CCN(Cc2cccc(O)c2)CC1` the value was > 70 µM (inactive); for `CC[C@]12c3[nH]c4cc(-c5ccco5)ccc4c3CCN1C(=O)[C@@H](CC(=O)NCC13CC4CC(CC(C4)C1)C3)C[C@@H]2C(=O)N1CCN(C(=O)c2ccco2)CC1`, > 70 µM (inactive); for `COc1ccc(/C=C2\Sc3ccc(C(=O)NCCCN4CCCC4)cc3N(C)C2=O)cc1OC`, 35.2 µM. For `C[C@@H]1CN([C@@H](C)CO)C(=O)Cc2cc(NC(=O)Nc3ccccc3)ccc2O[C@@H]1CN(C)Cc1ccccc1` the value was > 60 µM (inactive); for `CC12CCC3c4ccc(O)cc4CCC3C1CCC2=O` (centres undefined), > 70 µM (inactive); for `COc1ccc(OCCN2CCC(C(=O)NC(c3ccsc3)c3ccccc3C)CC2)cc1` (centres undefined), > 70 µM (inactive). Regarding `COc1ccc(/C=C2\CN(Cc3ccccc3)C/C(=C\c3ccc(OC)c(O)c3)C2=O)cc1O`, the AC50 is 6.12 µM. For `C[C@H]1CN([C@@H](C)CO)C(=O)c2cc(NC(=O)Cc3cn(C)c4ccccc34)ccc2O[C@@H]1CN(C)S(=O)(=O)c1ccc(F)cc1` the value was > 70 µM (inactive); for `CN(c1ccccc1)S(=O)(=O)c1cc(C(=O)N2CCN(c3ncccn3)CC2)ccc1Cl`, > 70 µM (inactive). For `Cc1ccc(N(Cc2ccccc2)C(=O)c2cccc(S(=O)(=O)N3CC(C)OC(C)C3)c2)cc1` (centres undefined) the value was > 70 µM (inactive); for `COc1ccc(C[C@@H]2CN3C(=NC[C@@H]3Cc3ccc(O)cc3)N2C[C@H](C)NC(=O)CCC2CCCCC2)cc1`, 18.8 µM. For `COc1cccc2c1C(=O)c1c(O)c3c(c(O)c1C2=O)CC(O)(C(C)=NO)CC3OC1CC(N)C(O)C(C)O1` (centres undefined) the value was 5.56 µM; for `C[C@@H]1CN([C@@H](C)CO)C(=O)c2cc(NC(=O)Cc3cn(C)c4ccccc34)ccc2O[C@@H]1CN(C)S(=O)(=O)c1ccc(F)cc1`, > 70 µM (inactive); for `Cc1c(O)ccc2c(CN3CCN(C/C=C/c4ccccc4)CC3)cc(=O)oc12`, > 70 µM (inactive). For `O=C(NCc1ccccc1CN1CCCC1)c1cc2ccccc2o1`, the AC50 is > 70 µM (inactive). In the case of `COC(=O)c1ccc(NC(=S)NCCc2cccc(C)c2)cc1`, the AC50 was > 70 µM (inactive). Consider `CCOC(=O)C1(CCOc2ccccc2)CCN(Cc2ccc(O)c(Cl)c2)CC1`, for which the AC50 is > 70 µM (inactive). Turning to `O=C(NCCc1c[nH]c2ccccc12)/C(=C\c1cccnc1)NC(=O)c1ccccc1Br`, the AC50 is > 70 µM (inactive). `Cc1ccc(NC(=O)CSC(C)C(=O)OCc2cc(=O)oc3cc(O)ccc23)cc1` (centres undefined): the AC50 is > 70 µM (inactive). For `Cc1[nH][nH]c(=O)c1C(c1c(C)[nH][nH]c1=O)c1cn(Cc2ccccc2Cl)c2ccccc12` the value was > 70 µM (inactive).

Consider `COc1cc(C2C(C#N)=C(N)Oc3cc(O)ccc32)cc(OC)c1OC` (centres undefined), for which the AC50 was > 70 µM (inactive). On to `O=C(c1ccc(S(=O)(=O)N2CCCCC2)cc1)N1CCN(Cc2ccc3c(c2)OCO3)CC1`, for which the AC50 is > 70 µM (inactive).

On to `Cc1noc(C)c1S(=O)(=O)Nc1ccc2c(c1)CC(=O)N([C@@H](C)CO)C[C@@H](C)[C@@H](CN(C)S(=O)(=O)c1ccc(F)cc1)O2`, for which the AC50 was > 70 µM (inactive). Regarding `Cc1cccn2c(CN(C)C3CCCc4ccccc43)c(C(=O)N3CCOCC3)nc12` (centres undefined), the AC50 is > 70 µM (inactive). For `O=c1cc(CN2CCN(S(=O)(=O)/C=C/c3ccccc3)CC2)c2ccc(O)cc2o1` the value was > 70 µM (inactive); for `CCOC(=O)C1(CCOc2ccccc2)CCN(Cc2ccc(O)cc2)CC1`, > 70 µM (inactive); for `CC[C@]12c3[nH]c4cc(-c5ccco5)ccc4c3CCN1C(=O)[C@@H](CC(=O)NCc1ccco1)C[C@@H]2C(=O)N1CCN(C(=O)c2ccco2)CC1`, > 70 µM (inactive).

Take `CC(=O)Oc1ccccc1C(=O)C=Cc1cccc([N+](=O)[O-])c1`: the AC50 was 5.89 µM. Take `Cc1cc(C(=O)Cn2nnc3ccccc3c2=O)c(C)n1-c1ccccc1F`: the AC50 is > 70 µM (inactive).

As for `CN1CCN(CCOC2c3ccccc3CSc3ccc(Cl)cc32)CC1` (centres undefined), the AC50 is 30.5 µM. For `C[C@]12CC[C@H]3C(=CCc4cc(O)ccc43)[C@@H]1CCC2=O` the value was > 70 µM (inactive).
